# Values of other authors in patent US20130090323A1, “HETEROCYCLIC COMPOUNDS AND THEIR USES” (Amgen Inc., priority 2010, published 2013).
# Assays:
# [1] = target: T1, p110δ (Homo sapiens, UniProt O00329)
# T1 sequence (O00329 1-1044): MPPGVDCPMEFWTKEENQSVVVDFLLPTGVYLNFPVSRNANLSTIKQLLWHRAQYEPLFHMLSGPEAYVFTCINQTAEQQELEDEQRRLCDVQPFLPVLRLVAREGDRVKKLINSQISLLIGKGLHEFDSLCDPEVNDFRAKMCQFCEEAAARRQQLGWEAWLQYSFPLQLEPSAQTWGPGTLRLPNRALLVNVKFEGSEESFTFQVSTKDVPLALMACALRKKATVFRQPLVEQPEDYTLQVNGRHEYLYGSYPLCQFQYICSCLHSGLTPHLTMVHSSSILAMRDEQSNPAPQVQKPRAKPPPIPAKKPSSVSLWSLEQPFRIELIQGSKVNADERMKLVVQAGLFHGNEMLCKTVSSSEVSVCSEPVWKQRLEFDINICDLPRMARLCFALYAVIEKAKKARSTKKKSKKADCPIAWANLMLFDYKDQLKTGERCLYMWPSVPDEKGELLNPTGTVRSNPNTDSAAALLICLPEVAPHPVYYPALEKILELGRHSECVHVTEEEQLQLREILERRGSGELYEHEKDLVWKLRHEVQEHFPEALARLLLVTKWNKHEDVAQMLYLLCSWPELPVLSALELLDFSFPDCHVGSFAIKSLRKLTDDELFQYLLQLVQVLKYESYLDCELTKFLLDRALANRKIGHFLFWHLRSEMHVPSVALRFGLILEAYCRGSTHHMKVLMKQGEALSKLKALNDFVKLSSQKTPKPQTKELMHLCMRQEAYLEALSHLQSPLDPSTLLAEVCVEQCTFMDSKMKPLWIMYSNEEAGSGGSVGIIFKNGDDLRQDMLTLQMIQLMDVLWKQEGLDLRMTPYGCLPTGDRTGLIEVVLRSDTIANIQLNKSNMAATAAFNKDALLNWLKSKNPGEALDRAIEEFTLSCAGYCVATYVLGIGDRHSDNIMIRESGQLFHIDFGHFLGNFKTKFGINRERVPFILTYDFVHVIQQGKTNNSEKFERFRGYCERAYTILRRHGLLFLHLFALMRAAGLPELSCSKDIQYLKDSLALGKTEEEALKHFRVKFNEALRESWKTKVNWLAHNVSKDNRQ
# [2] = system: protein kinases
# [3] = system: murine model of allergic disease; details: absence of functional delta (compound and p110δ D910A mice)
# [4] = system: murine model of asthma; details: mouse, in vivo
# [5] = system: mouse model of rheumatoid arthritis; details: in vivo
# [6] = system: model of systemic lupus erythematosis; details: in vivo
Compound,inhibition of p110δ [1],activity against any protein kinases tested [2],passive cutaneous anaphylaxis (PCA) [3],inflammation and disease in ovalbumin-induced airway inflammation [4],efficacy in a mouse model of rheumatoid arthritis [5],onset of disease in a model of systemic lupus erythematosis [6]
Cc1ccccc1-n1c(Cn2cnc3c(N)ncnc32)nc2cccc(C)c2c1=O [IC87114],high nanomolar range (triple digit),no activity,significantly reduced,significantly ameliorate inflammation and disease,–,–
O=C1NC(=O)/C(=C\c2ccc3nccnc3c2)S1 [AS 605240],–,–,–,–,efficacious,delay onset of disease
